{"source": "paper PMC9401007", "about": "“Advances towards Cell‐Specific Gene Transfection: A Small‐Molecule Approach Allows Order‐of‐Magnitude Selectivity” (Chemistry (Weinheim an Der Bergstrasse, Germany), 2022)", "key": {"[1]": {"tested_on": "HeLa cells", "test": "Transfection of pH2B-mCherry plasmid, microscopy with CellProfiler readout", "format": "cell-based", "protocol": "(§1) The development of vector 1 is illustrated in Table 1. In order to assess structure–activity relationships (SAR), we analyzed the minimal concentration needed to achieve transfection in steps of 100 μM, the toxicological profile and the transfection efficiency. To get swift access to toxicity data for SAR analysis, the compounds listed in Table 1 were evaluated in an MTS‐based cell‐viability assay, and transfection efficiencies were analyzed by CellProfiler® on HeLa cells (see the Supporting Information for details).[18] […] Amide formation on the N terminus reduced the net charge by 1, and acetylation at this position led to an increased concentration needed for successful transfection (Table 1, Entry B). Finally, the descent in transfection efficiency to 5.9 % highlights the relevance of a fifth positive charge.[19] Apparently, this reduction of positive charges impedes DNA condensation and must be compensated for.\n4.2 Transfection and Microscopy\nCells were seeded in a 96-well plate from (Greiner bio-one) 24 h prior to experiments at a confluence of 1x104 in 100 µL of culture growth medium and grown at 37.0 °C, 5% CO2 atmosphere and 95% relative humidity. The vector was dissolved in DMSO. 0.100 µg of DNA were diluted with DB-PBS and an appropriate amount of vector solution added resulting in a total volume of 30 µL. This solution was incubated for 20 min at rt. Afterwards 30.0 µL of culture growth medium was replaced by vector/DNA mixture. All precipitate which had formed during the incubation process was added to the well. After 5 h of incubation the cells were washed with warm DB-PBS buffer (2x100 µL per well) before incubating the cells for 24h at 37.0 °C, 5% CO2 atmosphere and 95% relative humidity. After 24 h the cells were examined under the microscope.\nFigure S4. Representative microscopy images of HEK293t, HeLa, CHO, A549 and HCT116 cells 24 h after transfection with 1 (150 µM) with pH2B-mCherry.\nScale bar represents 200 µm. […]\n4.3 Quantification of Transfection Results\nFor quantification of transfection efficiencies, cells were transfected with the pH2B-mCherry plasmid using the different compounds at the described concentrations and stained with DAPI. […] The transfection efficiency was calculated using CellProfiler™.[7] […] Next, the fluorescence intensity in the red channel (Ex = 555 nm; Em > 590 nm) was measured within the segmented nuclei and a threshold was applied.\nThe ratio between pH2B-mCherry positive nuclei and all nuclei (segmented by DAPI) was determined as transfection efficiency. […]\nFigure S7. […] The pipeline recognizes Hoechst-stained nuclei and measures the intensity of the fluorescent reporter protein within the previously calculated nuclei boundaries. […]"}, "[2]": {"tested_on": "HeLa cells", "test": "MTS-based cell-viability assay (CellTiter 96 AQueous One Solution Cell Proliferation Assay)", "settings": "5 h incubation with plasmid DNA 1 µg/ml", "protocol": "as §1\n4. Biological experiments\nDetermination of the toxicity of the compounds was performed using the colorimetric CellTiter 96® AQueous One Solution Cell Proliferation Assay (Promega). […] Absorbance at 490 nm was measured using a GloMax-multi plate reader (Promega). […]"}}, "data": [{"substance": "tetralysine-guanidinocarbonylpyrrol", "values": [{"measurement": "Conc.: minimal concentration needed to observe successful transfection during microscopy", "setting": "[1]; analysed in steps of 100 μM, pH2B-mCherry plasmid, 5 h incubation, examined after 24 h", "value": 150, "unit": "µM"}, {"measurement": "Efficiency: transfection efficiency by CellProfiler readout", "setting": "[1]; at the (minimal) concentration printed in column Conc., fraction of pH2B-mCherry positive nuclei", "value": 3.2, "unit": "%"}, {"measurement": "Efficiency: transfection efficiency by CellProfiler readout at the optimal concentration", "setting": "[1]; at the concentration marked (opt.): A 300 μM, 1 150 μM", "value": 48, "unit": "%"}, {"measurement": "Conc. (opt.): concentration of maximum transfection efficiency", "setting": "[1]; pH2B-mCherry plasmid", "value": 300, "unit": "µM"}, {"measurement": "Toxicity (qualitative, MTS assay)", "setting": "[2]; concentration range optimal for transfection (for entry A: at the minimal concentration 150 μM), absorbance 490 nm, normalised to DMSO control", "value": "low (Low=cell viability ≥70 %)"}, {"measurement": "Toxicity (qualitative, MTS assay) at the optimal concentration", "setting": "[2]; entry A at 300 μM (opt.)", "value": "high (high=cell viability <70 %)"}]}]}
